Experiment: Stability of cannabinoid and Vitamin E components of Beverage 2 (AB Red) stored at 8° C. and 21-25° C., LCMSMS over 570 days
Method: The LCMSMS was calibrated for 0-50 ng/ml cannabinoids with the same resin material used in the preparation of the concentrates. At each time period, 100 μml of beverage was diluted with 10 ml of methanol and injected into the LCMSMS for analysis.

CCCCCc1cc(O)c2c(c1)OC(C)(C)c1ccc(C)cc1-2 [CBN, cannabinol]
Stability of Cannabinoids in AB Red (8° C., 26 days): 2.79 µg/mL | Stability of Cannabinoids in AB Red (8° C., 29 days): 2.77 µg/mL | Stability of Cannabinoids in AB Red (8° C., 30 days): 2.77 µg/mL | Stability of Cannabinoids in AB Red (8° C., 60 days): 2.73 µg/mL | Stability of Cannabinoids in AB Red (8° C., 90 days): 2.80 µg/mL | Stability of Cannabinoids in AB Red (8° C., 120 days): 2.69 µg/mL | Stability of Cannabinoids in AB Red (8° C., 150 days): 2.69 µg/mL | Stability of Cannabinoids in AB Red (8° C., 180 days): 2.74 µg/mL | Stability of Cannabinoids in AB Red (8° C., 210 days): 2.69 µg/mL | Stability of Cannabinoids in AB Red (8° C., 240 days): 2.74 µg/mL | Stability of Cannabinoids in AB Red (8° C., 270 days): 2.76 µg/mL | Stability of Cannabinoids in AB Red (8° C., 300 days): 2.75 µg/mL | Stability of Cannabinoids in AB Red (8° C., 330 days): 2.71 µg/mL | Stability of Cannabinoids in AB Red (8° C., 390 days): 2.72 µg/mL | Stability of Cannabinoids in AB Red (8° C., 420 days): 2.69 µg/mL | Stability of Cannabinoids in AB Red (8° C., 450 days): 2.71 µg/mL | Stability of Cannabinoids in AB Red (8° C., 480 days): 2.66 µg/mL | Stability of Cannabinoids in AB Red (8° C., 510 days): 2.62 µg/mL | Stability of Cannabinoids in AB Red (8° C., 540 days): 2.60 µg/mL | Stability of Cannabinoids in AB Red (8° C., 570 days): 2.58 µg/mL | Stability of Cannabinoids in AB Red (21-25° C., 0 days): 2.81 µg/mL | Stability of Cannabinoids in AB Red (21-25° C., 1 days): 2.73 µg/mL | Stability of Cannabinoids in AB Red (21-25° C., 2 days): 2.83 µg/mL | Stability of Cannabinoids in AB Red (21-25° C., 3 days): 2.78 µg/mL | Stability of Cannabinoids in AB Red (21-25° C., 5 days): 2.71 µg/mL | Stability of Cannabinoids in AB Red (21-25° C., 8 days): 2.74 µg/mL | Stability of Cannabinoids in AB Red (21-25° C., 9 days): 2.72 µg/mL | Stability of Cannabinoids in AB Red (21-25° C., 10 days): 2.73 µg/mL | Stability of Cannabinoids in AB Red (21-25° C., 11 days): 2.83 µg/mL | Stability of Cannabinoids in AB Red (21-25° C., 12 days): 2.70 µg/mL | Stability of Cannabinoids in AB Red (21-25° C., 15 days): 2.77 µg/mL | Stability of Cannabinoids in AB Red (21-25° C., 16 days): 2.81 µg/mL | Stability of Cannabinoids in AB Red (21-25° C., 17 days): 2.74 µg/mL | Stability of Cannabinoids in AB Red (21-25° C., 18 days): 2.80 µg/mL | Stability of Cannabinoids in AB Red (21-25° C., 19 days): 2.70 µg/mL | Stability of Cannabinoids in AB Red (21-25° C., 22 days): 2.70 µg/mL | Stability of Cannabinoids in AB Red (21-25° C., 23 days): 2.82 µg/mL | Stability of Cannabinoids in AB Red (21-25° C., 24 days): 2.78 µg/mL | Stability of Cannabinoids in AB Red (21-25° C., 25 days): 2.84 µg/mL | Stability of Cannabinoids in AB Red (21-25° C., 26 days): 2.70 µg/mL | Stability of Cannabinoids in AB Red (21-25° C., 29 days): 2.78 µg/mL | Stability of Cannabinoids in AB Red (21-25° C., 30 days): 2.77 µg/mL | Stability of Cannabinoids in AB Red (21-25° C., 60 days): 2.78 µg/mL | Stability of Cannabinoids in AB Red (21-25° C., 90 days): 2.75 µg/mL | Stability of Cannabinoids in AB Red (21-25° C., 120 days): 2.77 µg/mL | Stability of Cannabinoids in AB Red (21-25° C., 150 days): 2.75 µg/mL | Stability of Cannabinoids in AB Red (21-25° C., 180 days): 2.70 µg/mL | Stability of Cannabinoids in AB Red (21-25° C., 210 days): 2.70 µg/mL | Stability of Cannabinoids in AB Red (21-25° C., 240 days): 2.73 µg/mL | Stability of Cannabinoids in AB Red (21-25° C., 270 days): 2.73 µg/mL | Stability of Cannabinoids in AB Red (21-25° C., 300 days): 2.70 µg/mL | Stability of Cannabinoids in AB Red (21-25° C., 330 days): 2.75 µg/mL | Stability of Cannabinoids in AB Red (21-25° C., 390 days): 2.65 µg/mL | Stability of Cannabinoids in AB Red (21-25° C., 420 days): 2.64 µg/mL | Stability of Cannabinoids in AB Red (21-25° C., 450 days): 2.68 µg/mL | Stability of Cannabinoids in AB Red (21-25° C., 480 days): 2.58 µg/mL | Stability of Cannabinoids in AB Red (21-25° C., 510 days): 2.66 µg/mL | Stability of Cannabinoids in AB Red (21-25° C., 540 days): 2.65 µg/mL | Stability of Cannabinoids in AB Red (21-25° C., 570 days): 2.58 µg/mL

— patent US20240415914A1, “Water Dispersible Cannabinoid Compositions” (priority 2021, published 2024)
